This is an account of results in US5948800A, “Preventive or therapeutic drug for Alzheimer's disease” (A. Nattermann & Cie. GmbH, priority 1996, dated 1999).

By viability is commonly meant a read-out of living cells in per cent, often relative to untreated cells. A word on the LD50: it is the dose at which mortality reaches 50%. A high value points to a less toxic substance.

Series [1] deals with PC12 cells. In words: Generation of hydrogen peroxide in PC12 cells to which SNAP was added (DCFH, FACS). Format: cell-based, rat. The note with it: for Amounts of generated H2O2 (% log fluorescence of control): n = 3. The method, then:
PC12 cells (derived from rats, chromaffin tumor) were cultured and subcultured in a 100 mm dish (made of Corning) coated with polylysine and containing a DMEM medium supplemented with 10% FCS and 5% horse serum (product of Sigma). Briefly, PC12 cells (1×10^6 cells/dish) were seeded in a 100 mm dish coated with polylysine. In order to induce differentiation of the PC12 cells, the cells were grown for 7 days in a DMEM medium containing 5% FCS, 50 ng/ml NGF, and 1% horse serum. The PC12 cells were then peeled off through pipetting and suspended in a suitable medium to prepare a cell suspension. The cell suspension was seeded into each well of a […], polylysine-coated 96-well dish (1×10^4 cells/well). After adhesion of the cells was confirmed, the following procedure was performed.
The thus-adhered PC12 cells were placed in a DMEM medium. To the cells were added 10 μM of SNAP and 2.5 μM of compound A. For control groups, only SNAP was added. Each sample was incubated for 3 hours. Thereafter, a solution of DCFH-DA (Molecular Probes, Inc.) in DMSO (1 mg/413 μl) which had been prepared in advance was added to each PC12-containing sample so that a final concentration of 5 μM was obtained, and the samples were then incubated for 30 minutes. The cells were removed using trypsin-EDTA, and recovered via centrifugation (1,000 rpm×5 min.). The recovered cells were suspended in 50 μl of PBS(-) while being cooled with ice. The amount of intracellular hydrogen peroxide was determined using a flow cytometer; The cell suspension was subjected to FACS (fluorescence-activated cell sorting), and the amount of the fluorescent substance, […], which had been oxidized by peroxides was measured.

Series [2] concerns PC12 cells. In words: Viability of PC12 cells in the presence of Aβ (MTT method). The format is cell-based, rat. The note with it: for Suppression of neuron death caused by Aβ (in words): Aβ 10 μM, compound 0.1, 1 or 2.5 μM, PC12; for viability at 0.1 µM / viability at 1 µM / viability at 2.5 µM: Rattus norvegicus, PC-12, 48 h, read-out: Viability of cells (% of control). The method, then:
PC12 cells (derived from rats, chromaffin tumor) were cultured and subcultured in a 100 mm dish (made of Corning) coated with polylysine and containing a DMEM medium supplemented with 10% FCS and 5% horse serum (product of Sigma). Briefly, PC12 cells (1×10^6 cells/dish) were seeded in a 100 mm dish coated with polylysine. In order to induce differentiation of the PC12 cells, the cells were grown for 7 days in a DMEM medium containing 5% FCS, 50 ng/ml NGF, and 1% horse serum. The PC12 cells were then peeled off through pipetting and suspended in a suitable medium to prepare a cell suspension. The cell suspension was seeded into each well of a polylysine-coated 96-well dish (1×10^4 cells/well). Subsequently, Aβ (Bachem Feinchmikalien AG) was added so that a final concentration of 10 μM was achieved. Compound A was also added so that a final concentration of 0.1, 1.0, or 2.5 μM was achieved. […] The cells were cultured for 48 hours from the addition of compound A or compound B.
An MTT reagent (3-(4,5-dimethylthiazole-2-yl)-2,5-diphenyl tetrazolium bromide) was added to the thus-treated cells, incubation was performed for 4 hours, and the cells were lysed. The subsequent procedure was performed using a so-called MTT method, which employs colorimetry based on a reduction reaction of the reagent, to thereby obtain the viability of the cells in the suspension (Behl, C. et al., Cell, 77: 817-827, 1994). [drawing 1]
(Tetrazolium assays rely on reduction of a dye to a coloured formazan, in cell work by metabolically active cells.)

Series [3] concerns glutathione peroxidase-like activities. The note with it: stated in description of control compound; cited from earlier work.
A further series deals with mice or rats. In words: Adverse side effects at high dose in mice or rats. The format is in vivo.
Another series is described as follows: LD50 in mice. The note with it: mouse, in vivo, oral. The source says:
(§1) Toxicity of compound A has been studied by obtaining LD50 values in mice and rats.

A short description of another series: LD50 in rats. The note with it: rat, in vivo.
From the text: as §1

“Also recorded” adds a separate entry of the source.

For `CC(=O)NC(C(=O)O)C(C)(C)SN=O` (racemic) [SNAP, Snitroso-N-acetyl-DL-penicillamine, reference compound], the “Amounts of generated H2O2 (% log fluorescence of control)” value with PC12 cells [1] (SNAP 10 μM alone) was 135.8 ± 5.25 % log fluorescence of control. Moreover, in the series on PC12 cells [1] (SNAP 10 μM, 3 hours), the “Increase of generation of hydrogen peroxide over the level without SNAP” value was 1.3-1.4 times.
Turning to `O=c1c2ccccc2sn1-c1ccccc1` [B, 2-phenyl-1,2-benzothiazol-3(2H)-one, reference compound], in the series on PC12 cells [2], the “Suppression of neuron death caused by Aβ (in words)” value is listed as “the death rate could not be suppressed”, the viability at 0.1 µM was determined as 14 ± 4.5%, the viability at 1 µM stood at 13 ± 1% and the viability at 2.5 µM was 10 ± 5%. For the same compound, in series [3], the Glutathione peroxidase-like activities entry was “having no glutathione peroxidase-like activities”.
Regarding `O=c1c2ccccc2[se]n1-c1ccccc1` [Compound A, 2-phenyl-1,2-benzisoselenazol-3(2H)-one], in the series on PC12 cells [2], the “Suppression of neuron death caused by Aβ (in words)” value is “neuron death suppressed significantly in all cases”, the viability at 0.1 µM was determined as 45 ± 2.1%, the viability at 1 µM was 59 ± 14.5% and the viability at 2.5 µM is 66 ± 4.5%. Also, the “Suppression of generation of hydrogen peroxide (in words)” value with PC12 cells [1] (SNAP 10 μM, compound A 2.5 μM, P≤0.0015) was “significantly suppressed; also recorded: satisfactorily suppressed”. In addition, in the series on PC12 cells [1] (SNAP 10 μM, compound A 2.5 μM, P ≤ 0.0015 vs SNAP), the “Amounts of generated H2O2 (% log fluorescence of control)” value is reported as 45.7 ± 6.03 % log fluorescence of control. Moreover, the “Suppression of generation of hydrogen peroxide induced by Aβ (in words)” value in the series on PC12 cells [1] (concluding statement) is listed as “significantly suppresses generation of hydrogen peroxide”. For the same compound, in the series on mice or rats, the Adverse side effects entry was “no problematic adverse side effects were observed”. For the same compound, the LD50 in the series “LD50 in mice” is not below 6810 mg/kg. Also, the LD50 in the series “LD50 in rats” (ip, intraperitoneal) was 580 mg/kg. In “LD50 in rats” (oral), this compound showed a median lethal dose (LD50) not below 6810 mg/kg.
